As usually defined, the viability is a read-out of living cells in per cent, often relative to untreated cells.

From PMC11995724, “Antibiotic target discovery by integrated phenotypic and activity-based profiling of electrophilic fragments” (Cell chemical biology, 2025) come the findings set out here.

This data set in a line: in vitro. To be noted: human, hek293t cells.
In the case of `C=CC(=O)Nc1ccc2oc(CC(C)(C)C)nc2c1` [3-K18, N-[2-(2,2-dimethylpropyl)-1,3-benzoxazol-5-yl]prop-2-enamide], the viability at 48 h, 25 µM is 82.2%. Take `C=CC(=O)N1CCC(c2ccc(OC)c(F)c2)C1` (stereo not drawn) [3-K19, 1-[3-(3-fluoro-4-methoxyphenyl)pyrrolidin-1-yl]prop-2-en-1-one]: the viability at 48 h, 25 µM turned out to be 48.9%. The value for `C=CC(=O)NCCCn1cnc2c1CCCC2` [3-K20, N-[3-(4,5,6,7-tetrahydro-1H-1,3-benzodiazol-1-yl)propyl]prop-2-enamide] was 101%; that for `C=CC(=O)N(CC)CC(=O)N1CC[S+]([O-])C(C)(C)CC1` (stereo not drawn) [3-K21, N-[2-(7,7-dimethyl-1-oxo-1lambda4,4-thiazepan-4-yl)-2-oxoethyl]-N-ethylprop-2-enamide] was 40.1%.

Regarding `C=CC(=O)NC1(c2ncon2)CCOCC1` [3-K22, N-[4-(1,2,4-oxadiazol-3-yl)oxan-4-yl]prop-2-enamide], the viability at 48 h, 25 µM amounted to 66.9%.

Regarding `C=CC(=O)N1CCC(C(=O)NCc2ncc(N(C)C)cn2)CC1` [3-L03, N-{[5-(dimethylamino)pyrimidin-2-yl]methyl}-1-(prop-2-enoyl)piperidine-4-carboxamide], the viability at 48 h, 25 µM turned out to be 68.2%. Take `C=CC(=O)Nc1cccc(-c2ccon2)c1` [3-L04, N-[3-(1,2-oxazol-3-yl)phenyl]prop-2-enamide]: the viability at 48 h, 25 µM came to 70.4%. The value for `C=CC(=O)N(CC)CC(=O)N1CCN(c2ccsc2C#N)CC1` [3-L05, N-{2-[4-(2-cyanothiophen-3-yl)piperazin-1-yl]-2-oxoethyl}-N-ethylprop-2-enamide] was 62.6%. The value for `C=CC(=O)NCc1ccc(C(=O)N2CCC[C@H]2C(=O)NC)cc1` [3-L06, (2S)-N-methyl-1-{4-[(prop-2-enamido)methyl]benzoyl}pyrrolidine-2-carboxamide] was 80.6%; that for `C=CC(=O)NCC(F)(F)C1(OC)CCC1` [3-L07, N-[2,2-difluoro-2-(1-methoxycyclobutyl)ethyl]prop-2-enamide] was 82.7%. `C=CC(=O)N(C)Cc1nc2c(cnn2C)c(=O)[nH]1` [3-L08, N-methyl-N-({1-methyl-4-oxo-1H,4H,5H-pyrazolo[3,4-d]pyrimidin-6-yl}methyl)prop-2-enamide]: the viability at 48 h, 25 µM turned out to be 70.4%.

In the case of `C=CC(=O)NC1(c2nc(C)no2)CC1` [3-L09, N-[1-(3-methyl-1,2,4-oxadiazol-5-yl)cyclopropyl]prop-2-enamide], the viability at 48 h, 25 µM was 46.8%. `C=CC(=O)Nc1cnoc1C(C)C` [3-L10, N-[5-(propan-2-yl)-1,2-oxazol-4-yl]prop-2-enamide]: the viability at 48 h, 25 µM was determined as 92.6%.

On to `C=CC(=O)N(C)Cc1cccnc1` [3-L11, N-methyl-N-[(pyridin-3-yl)methyl]prop-2-enamide], for which the viability at 48 h, 25 µM was 82%. With `C=CC(=O)N1CCC(C(=O)NCc2cc(=O)n3ccccc3n2)CC1` [3-L12, N-({4-oxo-4H-pyrido[1,2-a]pyrimidin-2-yl}methyl)-1-(prop-2-enoyl)piperidine-4-carboxamide], the viability at 48 h, 25 µM was determined as 82.7%. Take `C=CC(=O)NCC1CCCC1N1CCCS1(=O)=O` (stereo not drawn) [3-L13, N-{[2-(1,1-dioxo-1lambda6,2-thiazolidin-2-yl)cyclopentyl]methyl}prop-2-enamide]: the viability at 48 h, 25 µM is 78.9%. The figure for `C=CC(=O)NCc1cc2cc(C)ccc2o1` [3-L14, N-[(5-methyl-1-benzofuran-2-yl)methyl]prop-2-enamide] is 85.4%. The value for `C=CC(=O)NCc1c(F)cccc1S(=O)(=O)N(C)C` [3-L15, N-{[2-(dimethylsulfamoyl)-6-fluorophenyl]methyl}prop-2-enamide] was 83.2%; that for `C=CC(=O)N1CC(C)c2ccc(S(N)(=O)=O)cc21` (stereo not drawn) [3-L16, 3-methyl-1-(prop-2-enoyl)-2,3-dihydro-1H-indole-6-sulfonamide] was 1.43%.

Consider `C=CC(=O)NC1CC(C)Cc2cc(OC)ccc21` (stereo not drawn) [3-L17, N-(6-methoxy-3-methyl-1,2,3,4-tetrahydronaphthalen-1-yl)prop-2-enamide], for which the viability at 48 h, 25 µM was 61.6%. With `C=CC(=O)Nc1ccc(C2=NNC(=O)CO2)cc1` [3-L18, N-[4-(5-oxo-5,6-dihydro-4H-1,3,4-oxadiazin-2-yl)phenyl]prop-2-enamide], the viability at 48 h, 25 µM turned out to be 67.1%.

Turning to `C=CC(=O)NCC(OC)C1CCOC1` (stereo not drawn) [3-L19, N-[2-methoxy-2-(oxolan-3-yl)ethyl]prop-2-enamide], the viability at 48 h, 25 µM is 85.8%. With `C=CC(=O)NCc1cn2c(n1)CCCC2` [3-L20, N-({5H,6H,7H,8H-imidazo[1,2-a]pyridin-2-yl}methyl)prop-2-enamide], the viability at 48 h, 25 µM was 103%.

Regarding `C=CC(=O)NCc1ccccc1N1CCCC(C(N)=O)C1` (stereo not drawn) [3-L21, 1-{2-[(prop-2-enamido)methyl]phenyl}piperidine-3-carboxamide], the viability at 48 h, 25 µM was determined as 68.9%. For `C=CC(=O)NCc1ccc(C(=O)N2CCC[C@@H]2C(N)=O)cc1` [3-L22, (2R)-1-{4-[(prop-2-enamido)methyl]benzoyl}pyrrolidine-2-carboxamide], the viability at 48 h, 25 µM turned out to be 81.9%. The value for `C=CC(=O)N1CCn2cccc2C1c1ccncc1` (stereo not drawn) [3-M03, 1-[1-(pyridin-4-yl)-1H,2H,3H,4H-pyrrolo[1,2-a]pyrazin-2-yl]prop-2-en-1-one] was 45.2%; that for `C=CC(=O)N1CCC(C(=O)NC2(c3ccc(F)cc3F)CCC2)CC1` [3-M04, N-[1-(2,4-difluorophenyl)cyclobutyl]-1-(prop-2-enoyl)piperidine-4-carboxamide] was 97.5%.

Consider `C=CC(=O)N1CCC(C(=O)NC(C)CC2CC2)CC1` (stereo not drawn) [3-M05, N-(1-cyclopropylpropan-2-yl)-1-(prop-2-enoyl)piperidine-4-carboxamide], for which the viability at 48 h, 25 µM is 53.3%. The value for `C=CC(=O)N1CCC(C(=O)NCC(O)c2cccc(Cl)c2)CC1` (stereo not drawn) [3-M06, N-[2-(3-chlorophenyl)-2-hydroxyethyl]-1-(prop-2-enoyl)piperidine-4-carboxamide] was 98.1%; that for `C=CC(=O)NCC1CCc2cccnc21` (stereo not drawn) [3-M07, N-({5H,6H,7H-cyclopenta[b]pyridin-7-yl}methyl)prop-2-enamide] was 47.8%; that for `C=CC(=O)Nc1cccc(S(=O)(=O)C2CCOCC2)c1` [3-M08, N-[3-(oxane-4-sulfonyl)phenyl]prop-2-enamide] was 96.8%.

Consider `C=CC(=O)N1CCCC1c1cn(C)nc1C` (stereo not drawn) [3-M09, 1-[2-(1,3-dimethyl-1H-pyrazol-4-yl)pyrrolidin-1-yl]prop-2-en-1-one], for which the viability at 48 h, 25 µM came to 50.9%. For `C=CC(=O)N1CCCn2nc(CO)cc2C1` [3-M10, 1-[2-(hydroxymethyl)-4H,5H,6H,7H,8H-pyrazolo[1,5-a][1,4]diazepin-5-yl]prop-2-en-1-one], the viability at 48 h, 25 µM was found to be 109%.

`C=CC(=O)N1CCN(C(C)c2nc(C)no2)CC1` (stereo not drawn) [3-M11, 1-{4-[1-(3-methyl-1,2,4-oxadiazol-5-yl)ethyl]piperazin-1-yl}prop-2-en-1-one]: the viability at 48 h, 25 µM is 61%.

With `C=CC(=O)N1CCCC(n2cc(C)cn2)C1` (stereo not drawn) [3-M12, 1-[3-(4-methyl-1H-pyrazol-1-yl)piperidin-1-yl]prop-2-en-1-one], the viability at 48 h, 25 µM amounted to 94.4%. For the molecule `C=CC(=O)NCCn1nc(C)cc1C` [3-M13, N-[2-(3,5-dimethyl-1H-pyrazol-1-yl)ethyl]prop-2-enamide], the viability at 48 h, 25 µM came out at 56.9%. The value for `C=CC(=O)N1CCC(C(=O)NC(C)(C)CSC)CC1` [3-M14, N-[2-methyl-1-(methylsulfanyl)propan-2-yl]-1-(prop-2-enoyl)piperidine-4-carboxamide] was 153%; that for `C=CC(=O)N1CCCn2ncc(C3CC3)c21` [3-M15, 1-{3-cyclopropyl-4H,5H,6H,7H-pyrazolo[1,5-a]pyrimidin-4-yl}prop-2-en-1-one] was 1.25%; that for `C=CC(=O)N1CCC(C(=O)Oc2ccc(NC(C)=O)cc2)CC1` [3-M16, 4-acetamidophenyl 1-(prop-2-enoyl)piperidine-4-carboxylate] was 93.3%. The figure for `C=CC(=O)NCCC(=O)N1CCC(c2ncccn2)CC1` [3-M17, N-{3-oxo-3-[4-(pyrimidin-2-yl)piperidin-1-yl]propyl}prop-2-enamide] is 62.4%; for `C=CC(=O)Nc1cnn(CCN2CCCC2=O)c1` [3-M18, N-{1-[2-(2-oxopyrrolidin-1-yl)ethyl]-1H-pyrazol-4-yl}prop-2-enamide] it is 90%.

Take `C=CC(=O)N(CC)CC(=O)Nc1ccc2c(c1)nc1n2CCCCC1` [3-M19, N-[({1,8-diazatricyclo[7.5.0.0,2,7]tetradeca-2,4,6,8-tetraen-5-yl}carbamoyl)methyl]-N-ethylprop-2-enamide]: the viability at 48 h, 25 µM was 35.8%. The value for `C=CC(=O)NCCc1nccs1` [3-M20, N-[2-(1,3-thiazol-2-yl)ethyl]prop-2-enamide] was 89.6%; that for `C=CC(=O)N1CCC(C(=O)NCc2ccc(-c3n[nH]c(C)n3)cc2)CC1` [3-M21, N-{[4-(5-methyl-1H-1,2,4-triazol-3-yl)phenyl]methyl}-1-(prop-2-enoyl)piperidine-4-carboxamide] was 56.1%; that for `C=CC(=O)NC(C)Cc1cccn1C` (stereo not drawn) [3-M22, N-[1-(1-methyl-1H-pyrrol-2-yl)propan-2-yl]prop-2-enamide] was 70.2%. The value for `C=CC(=O)N1CCC(C(=O)NCc2ccccc2-n2cccn2)CC1` [3-N03, 1-(prop-2-enoyl)-N-{[2-(1H-pyrazol-1-yl)phenyl]methyl}piperidine-4-carboxamide] was 68%; that for `C=CC(=O)N1CCC(c2nnc(C)o2)CC1` [3-N04, 1-[4-(5-methyl-1,3,4-oxadiazol-2-yl)piperidin-1-yl]prop-2-en-1-one] was 87.3%. The value for `C=CC(=O)N1CCC(C(=O)NCc2ccc(C(N)=O)nc2)CC1` [3-N05, 5-({[1-(prop-2-enoyl)piperidin-4-yl]formamido}methyl)pyridine-2-carboxamide] was 59.8%.
